# Paper PMC7791843, “Production of 10-methyl branched fatty acids in yeast” (Biotechnology for Biofuels, 2021)
# Biological target: T1, T. curvata BfaA (Thermomonospora curvata, UniProt D1ABB3)
# T1 construct: gene Tcur_1573; native gene from genomic DNA (DSMZ), plasmid pNC964 (strain NS1164), crude E. coli cell-free extract
# T1 sequence (D1ABB3 1-455): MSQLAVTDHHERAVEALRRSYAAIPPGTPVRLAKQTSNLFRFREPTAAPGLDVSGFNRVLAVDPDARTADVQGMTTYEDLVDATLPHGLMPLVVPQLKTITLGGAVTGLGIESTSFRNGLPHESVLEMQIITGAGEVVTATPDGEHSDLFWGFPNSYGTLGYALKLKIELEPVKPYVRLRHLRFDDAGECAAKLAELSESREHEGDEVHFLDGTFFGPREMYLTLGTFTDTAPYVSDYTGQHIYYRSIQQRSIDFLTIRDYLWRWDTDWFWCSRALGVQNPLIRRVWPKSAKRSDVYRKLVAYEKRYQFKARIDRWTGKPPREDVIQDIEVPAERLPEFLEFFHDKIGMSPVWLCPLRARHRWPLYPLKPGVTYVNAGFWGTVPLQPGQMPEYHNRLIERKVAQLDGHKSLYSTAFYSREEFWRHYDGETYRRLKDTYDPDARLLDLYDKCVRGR
# Test: crude extract assay, GC-FID of 10-methyl fatty acid
# Type: biochemical
# Details: 10 mM NADPH, 37 °C, 16 h; heat-inactivated BfaB lysate with 10-methylene acyl chains
compound,measurement,value
NC(=O)C1=CN([C@@H]2O[C@H](COP(=O)(O)OP(=O)(O)OC[C@H]3O[C@@H](n4cnc5c(N)ncnc54)[C@H](OP(=O)(O)O)[C@@H]3O)[C@@H](O)[C@H]2O)C=CC1 [NADPH],"crude extract assay, GC-FID of 10-methyl fatty acid","We detected 10-methylstearic acid production in the presence of NADPH, but not NADH"
